Tests used:
CCK B = biological target: T1, CCK B (Mus musculus, UniProt P56481); assay: CCK receptor binding, displacement of tritiated-pentagastrin from cerebral cortical membranes (CCK B); design: species or system mouse (male CFLP); settings: mouse cerebral cortex membranes, 2 nM tritiated-pentagastrin
T1 construct: from tissue; host or cells: cerebral cortex of male CFLP mice (30-40 g), washed membranes
T1 sequence (P56481 1-453): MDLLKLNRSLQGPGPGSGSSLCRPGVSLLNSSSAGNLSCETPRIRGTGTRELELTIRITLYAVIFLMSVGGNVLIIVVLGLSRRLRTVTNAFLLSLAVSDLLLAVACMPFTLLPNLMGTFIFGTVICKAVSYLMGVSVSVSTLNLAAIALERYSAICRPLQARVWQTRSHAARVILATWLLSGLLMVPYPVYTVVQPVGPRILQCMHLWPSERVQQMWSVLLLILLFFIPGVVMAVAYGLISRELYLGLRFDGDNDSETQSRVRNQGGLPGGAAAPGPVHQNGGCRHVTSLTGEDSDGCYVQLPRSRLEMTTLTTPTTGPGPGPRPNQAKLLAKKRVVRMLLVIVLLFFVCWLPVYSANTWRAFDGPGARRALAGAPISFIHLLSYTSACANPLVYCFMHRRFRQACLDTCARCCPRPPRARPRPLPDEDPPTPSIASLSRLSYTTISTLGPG
Protocol: (§1) The biological activity of compounds of the present invention was evaluated employing an initial screening test which rapidly and accurately measured the binding of the tested compound to known CCK receptor sites. […] (See Hays et al, Neuropeptides 1:53-62, 1980; and Satuer et al, Science 208:1155-1156, 1980.
In this screening test, the cerebral cortices taken from male CFLP mice weighing between 30-40 g were dissected on ice, weighed, and homogenized in 10 volumes of 50 mM Tris-HCl buffer (pH 7.4 at 0°-4° C.). The resulting suspension was centrifuged, the supernate was discarded, and the pellet was washed by resuspension in Tris-HCl buffer followed by recentrifugation. The final pellet was resuspended in 20 volumes of […] buffer (pH 7.2 at 23° C.) containing 130 mM NaCl, […], […], […], 5 mg/mL bovine albumin, and bacitracin (0.25 mg/ml).
In saturation studies, cerebral cortical membranes were incubated at 23° C. for 120 minutes in a final volume of 500 μliter of Hepes incubation buffer (pH 7.2) together with 0.2-20 nM tritiated-pentagastrin (Amersham International, England).
In the displacement experiments, membranes were incubated with a single concentration (2 nM) of ligand, together with increasing concentrations (10^-11 to […]) of competitive test compound. In each case, the nonspecific binding was defined as that persisting in the presence of the unlabeled octapeptide CCK26-33 (10^-6 M).
Following incubation, radioactivity bound to membranes was separated from that free in solution by rapid filtration through Whatman GF/B filters and washed three times with 4 mL of ice cold Tris-HCl buffer. Filters from samples incubated with tritiated-pentagastrin were placed in polyethylene vials with 4 mL of scintillation cocktail, and the radioactivity was estimated by liquid scintillation spectrometry (efficiency 47-52%).
The specific binding to CCK receptor sites was defined as the total bound tritiated-pentagastrin minus the amount of tritiated-pentagastrin bound in the presence of 10^-6 octapeptide, CCK 26-33.
Saturation curves for specific tritiated-pentagastrin binding to mouse cortical membranes were analyzed by the methods of Scatchard (Ann. New York Acad. Sci. 51:660-672, 1949, and Hill (J. Phvsiol. 40:IV-VIII, 1910, to provide estimates for the maximum number of binding sites (Bmax) and the equilibrium dissociation constant (Ka).
In displacement experiments, inhibition curves were analyzed by either logit-log plots or the iterative curve fitting computer program ALLFIT (DeLean, Munson and Redbard, 1978) to provide estimates of the IC50 and nH (apparent Hill coefficient) values). (IC50 values were defined as the concentration of test compound required to produce 50% inhibition of specific binding.)
(§2) The inhibition constant (Ki) of the test compound was then calculated according to the Cheng-Prusoff equation: [formula] where [L] is the concentration of radiolabel and Ka is the equilibrium dissociation constant.

CCK A = assay: CCK receptor binding (CCK A); settings: assay not described
Protocol: as §1, §2

Ki (CCK B) | Ki (CCK A) | Compound
59 nM | – | CC1(C)[C@H]2CC[C@]1(C)[C@H](OC(=O)N[C@](C)(Cc1c[nH]c3ccccc13)C(=O)NC1CCc3ccccc3C1=O)C2 (single isomer, unassigned) [Compound 5, Carbamic acid, [1-(1H-indol-3 ylmethyl)-1-methyl-2-oxo-2-[(1-2,3,4-tetrahydro-1-oxo-2-naphthalenyl)amino]ethyl]-, 1,7,7-trimethylbicyclo[2.2.1.1]hept-2-yl ester]
330 nM | – | CC(Cc1c[nH]c2ccccc12)(NC(=O)OC1C2CC3CC(C2)CC1C3)C(=O)NC1CCc2ccccc2C1 (racemic) [Compound 7, Carbamic acid, [1-1H-indol-3-ylmethyl)-1-methyl-2-oxo-2 [(1,2,3,4-tetrahydro-2-naphthalenyl)amino]ethyl]-, tricyclo[3.3.1.1^3,7]-dec-2-yl ester, (±)-]
450 nM | – | C[C@](Cc1c[nH]c2ccccc12)(NC(=O)OC1C2CC3CC(C2)CC1C3)C(=O)N1CCc2ccccc2C1 (stereo partly drawn) [Compound 8, Carbamic acid, [1-(1H-indol-3-ylmethyl)-1-methyl-2-oxo-2-(1,2,3,4-tetrahydro-2-isoquinolinyl)ethyl]-, tricyclo[3.3.1.1^3.7]-dec-2-yl ester, (R)-]
45 nM | 5220 nM | CC(Cc1c[nH]c2ccccc12)(NC(=O)OC1C2CC3CC(C2)CC1C3)C(=O)NC1CCCc2ccccc21 (racemic) [Compound 6, Carbamic acid, [1-(1H-indol-3-ylmethyl)-1-methyl-2-oxo-2-[(1,2,3,4-tetrahydro-1-naphthalenyl)amino]ethyl]-, tricyclo[3.3.1.1^3,7]-dec-2-yl ester, (±)-]

Continued, compound first:

Compound | Ki (CCK B) | Ki (CCK A)
CC1(C)[C@H]2CC[C@]1(C)[C@H](OC(=O)N[C@](C)(Cc1c[nH]c3ccccc13)C(=O)NC1CCc3ccccc3C1=O)C2 (single isomer, unassigned) [Compound 4, Carbamic acid, [1-(1H-indol-3-ylmethyl)-1 methyl-2-oxo-2-[(1,2,3,4-tetrahydro-1-oxo 2-naphthalenyl)amino]ethyl]-, 1,7,7-trimethyl-bicyclo[2.2.1]hept-2-yl ester] | 94 nM | 7620 nM
CC1(C)[C@H]2CC[C@]1(C)[C@H](OC(=O)N[C@](C)(Cc1c[nH]c3ccccc13)C(=O)N[C@H]1Cc3ccccc3[C@@H]1O)C2 [Compound 2, Carbamic acid, [2-[(2,3-dihydro-1-hydroxy-1H-inden-2-yl)amino]-1-1H-indol-3-ylmethyl)-2-methyl-2-oxoethyl]-, 1,7,7-trimethylbicyclo-[2.2.1]hept-2-yl ester, [1S*[1α,2β[S-(trans)],4α]]-] | 111 nM | 5300 nM
CC1(C)[C@H]2CC[C@]1(C)[C@H](OC(=O)N[C@](C)(Cc1c[nH]c3ccccc13)C(=O)NC1c3ccccc3CC1O)C2 (stereo partly drawn) [Compound 1, Carbamic acid, [2-[(2,3-dihydro-2-hydroxy-1H-inden-1-yl)amino]-1-(1H-indol-3-ylmethyl)-1-methyl-2-oxoethyl]-, 1,7,7-trimethylbicyclo-[2.2.1]hept 2-yl ester] | 280 nM | –
CC1(C)[C@H]2CC[C@]1(C)[C@H](OC(=O)N[C@](C)(Cc1c[nH]c3ccccc13)C(=O)N[C@@H]1Cc3ccccc3[C@H]1O)C2 [Compound 3, Carbamic acid, [2-[(2,3-dihydro 1-hydroxy-1H-inden-2-yl)amino]-1-(1H-indol-3-ylmethyl)-1-methyl-2-oxoethyl]-, 1,7,7-trimethylbicyclo-[2.2.1]hept-2-yl ester, [1S-[1α,2β[S*(1S*,2S*)],4α]]-] | 30 nM | 3870 nM
